Series [1] deals with T1, hNPFF1-R (Homo sapiens, UniProt Q9GZQ6).
T1 construct: expressed in transfected cells; host or cells: CHO cells
As to conditions: inhibition of cAMP production induced by 2 μM forskolin; ref (46); read-out: Functional Activity hNPFF1-R EC50; cited from earlier work. (In general: Cyclic AMP is a second messenger, typically raised through Gs and lowered through Gi signalling.)

The target of series [2] is T2, hNPFF2-R (Homo sapiens, UniProt Q9Y5X5).
T2 construct: expressed in transfected cells; host or cells: CHO cells (membranes)
The arrangement: method as in earlier work. As to conditions: inhibition of cAMP production induced by 2 μM forskolin; ref (46); read-out: Functional Activity hNPFF2-R EC50; cited from earlier work.

The target in series [3] is T3, MOR (Homo sapiens, UniProt P35372). Briefly: Radioligand competition binding at MOR.
In series [4] the target is T3, MOR. Briefly: [35S]GTPγS functional assay (agonist mode) at MOR. It is filed as biochemical. As to conditions: [35S]GTPγS MOR EC50 ± SEM. On the technique in general: GTPγS is a poorly hydrolysed GTP analogue; its binding reports G protein activation.
Series [5] concerns the target T4, KOR (Homo sapiens, UniProt P41145). Put plainly: [35S]GTPγS functional assay (agonist mode) at KOR. It is filed as biochemical. Particulars: [35S]GTPγS KOR EC50 ± SEM, agonist mode, standard U-69,593.
Series [6] has as its target T1, hNPFF1-R. Put plainly: Radioligand competition binding at NPFF1-R. As to conditions: read-out: Receptor Binding, Ki ± SEM NPFF1-R.
Series [7] deals with T4, KOR. Briefly: biochemical. It counts as binding.
For series [8], the system named is C57BL/6J mice. Put plainly: Excreta assay (intestinal transit). As to conditions: 90 min.
Series [9] concerns the target T2, hNPFF2-R. Put plainly: Radioligand competition binding at NPFF2-R. As to conditions: [3H]EYF, transfected CHO cell membranes; read-out: Receptor Binding, Ki ± SEM NPFF2-R.
Series [10] can be described thus: Metabolic stability in rat liver microsomes. It counts as in vitro ADME. How it is done:
In vitro metabolism of 22b (1 µM) was studied using Sprague Dawley rat liver microsomes (RLM) in a bench-top shaker for 1 h at 37 ± 0.5 °C. An aliquot (2 μL) of the stock solution (250 µM) was spiked in 0.5 mL of pre-incubated metabolic reaction mixture [50 mM Tris buffer (pH 7.4), 0.5 mg protein/mL of RLM, 20 mM magnesium chloride, and 2 mM NADPH]. Verapamil was used as the positive control to ensure the activity of the liver microsomal enzymes, and a metabolic reaction mixture without NADPH was used as the negative control in the same incubation conditions. An aliquot (40 µL) of the reaction mixture was withdrawn at 0, 5, 10, 15, 30, 45, and 60 min and quenched with 200 µL of ice-cold methanol. Samples were vortex-mixed for 2 min, followed by filtration (Multiscreen, Merck Millipore, Ireland) under vacuum. The filtrate was injected onto a UPLC-MS/MS system.
The hepatic elimination rate constant (k) was calculated directly from the slope of the natural logarithm (percent drug remaining) of the concentration vs. the time profile. In vitro half-life (t1/2), intrinsic clearance (CLint), and hepatic clearance (CLint,h) can be calculated from the equations reported in Figure S3 of the Supporting Information, where [V] is the incubation volume in mL and [P] is the amount of microsomal protein in the incubation mixture.

Series [11] concerns the target T5, DOR (Homo sapiens, UniProt P41143). Put plainly: [35S]GTPγS functional assay (agonist mode) at DOR. Particulars: [35S]GTPγS DOR EC50 ± SEM, agonist mode, standard DPDPE. It is filed as biochemical.
Series [12] has as its target T5, DOR. Put plainly: Radioligand competition binding at DOR. As to conditions: read-out: Receptor Binding, Ki ± SEM DOR. For orientation: Displacement assays read how much labelled ligand stays bound in the presence of the test substance.
Series [13] deals with C57BL/6J mice. Put plainly: Locomotor testing (CLAMS). It counts as in vivo, mouse. As to conditions: 100 nmol i.c.v., 90 min.
Series [14] concerns C57BL/6J mice. Put plainly: Antinociception assay (55 °C warm water tail withdrawal assay). It is filed as in vivo, mouse.
For series [15], the system named is C57BL/6J mice. Put plainly: Respiration testing (CLAMS). It is filed as in vivo, mouse. As to conditions: 90 min.
The subject of series [16] is C57BL/6J mice. Briefly: Acute antinociceptive tolerance assay (55 °C warm water tail withdrawal). It is filed as in vivo, mouse. As to conditions: i.c.v.
Series [17] has as its system C57BL/6J mice. Put plainly: Anti-hyperalgesia assay (48 °C warm water tail withdrawal assay, NPFF-induced hyperalgesia). It is filed as in vivo, mouse.
A short description of series [18]: In vivo pharmacokinetic study, intravenous. Particulars: 5 mg/kg i.v., rat, mean (n = 6) ± SEM. The arrangement: species or system Sprague Dawley rats. The procedure: In vivo pharmacokinetic study. For the evaluation of the in vivo pharmacokinetic parameters of 22b, a pharmacokinetic study was performed in healthy male adult Sprague Dawley rats with in-dwelling jugular catheters weighing 225 ± 25 g. The animals were housed in single occupancy metabolic cages with mesh flooring and urine and feces receptacles. Six animals were dosed with 5 mg/kg intravenously, and the blood samples were collected at the following time points: pre-dose, 0.083, 0.17, 0.33, 0.50, 0.75, 1, 2, 4, 6, 8, and 10 h post-dose. All samples were stored at −80 °C until they were further analyzed. Collected plasma samples were analyzed using a validated UPLC-MS/MS method, and non-compartmental analysis of the plasma concentration data was performed using Phoenix® 6.4.
Bioanalytical method development and validation. A sensitive, accurate, and robust quantitative liquid chromatography tandem mass spectrometry (LC-MS/MS, Waters Corporation, Milford, MA, USA) method was developed and validated according to the FDA guidelines. Separation was achieved using a Waters Acquity I-Class liquid chromatography system equipped with a binary pump, a degasser, a temperature-controlled autosampler, and a column oven. The analyte was separated via gradient elution utilizing LC-MS grade water and methanol acidified with 0.02% trifluoroacetic acid (TFA, % v/v) through a 2.1 × 50 mm ACQUITY UPLC® CSH C18 column with 1.7 μm particle size (PN 186005296, SN 01463729915172). Mass detection was achieved via Waters Xevo TQS Micro triple quadrupole mass spectrometer in positive electrospray ionization (ESI^+) mode with the multiple reaction monitoring (MRM) function. The method was validated in rat plasma for the linearity range of 1–200 ng/mL. The gradient schematic and fragmentation monitoring parameters are reported in Tables S2 and S3 of the Supporting Information.

Another series addresses NPFF1-R. As to conditions: read-out: NPFF1-R Ki; Figure 1; ref [29]; cited from earlier work.
The mark [19] stands for this setting: male, Sprague Dawley, plasma, iv.

T1 sequence (Q9GZQ6 whole entry): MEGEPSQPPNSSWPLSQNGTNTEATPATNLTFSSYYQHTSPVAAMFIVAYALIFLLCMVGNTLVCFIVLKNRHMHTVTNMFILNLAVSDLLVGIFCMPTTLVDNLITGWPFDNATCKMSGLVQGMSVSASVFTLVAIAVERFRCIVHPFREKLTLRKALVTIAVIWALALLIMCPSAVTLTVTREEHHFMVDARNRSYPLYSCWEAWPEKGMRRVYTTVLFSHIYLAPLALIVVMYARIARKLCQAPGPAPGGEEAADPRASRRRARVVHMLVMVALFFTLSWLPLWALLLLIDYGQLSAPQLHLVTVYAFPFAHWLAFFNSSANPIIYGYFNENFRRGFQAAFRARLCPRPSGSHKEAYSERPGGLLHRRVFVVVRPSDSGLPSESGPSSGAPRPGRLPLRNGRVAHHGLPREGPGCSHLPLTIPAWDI
T5 sequence (P41143 whole entry): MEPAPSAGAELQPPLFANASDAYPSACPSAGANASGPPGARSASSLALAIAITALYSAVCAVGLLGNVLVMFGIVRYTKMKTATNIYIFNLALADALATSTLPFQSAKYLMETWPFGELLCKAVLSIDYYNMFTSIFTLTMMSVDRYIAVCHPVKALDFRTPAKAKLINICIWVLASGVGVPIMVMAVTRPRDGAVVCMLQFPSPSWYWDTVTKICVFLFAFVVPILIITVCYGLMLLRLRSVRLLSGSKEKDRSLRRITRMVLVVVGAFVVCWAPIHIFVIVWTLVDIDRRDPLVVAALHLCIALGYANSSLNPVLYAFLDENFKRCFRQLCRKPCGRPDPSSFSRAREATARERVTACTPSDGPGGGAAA
T3 sequence (P35372 whole entry): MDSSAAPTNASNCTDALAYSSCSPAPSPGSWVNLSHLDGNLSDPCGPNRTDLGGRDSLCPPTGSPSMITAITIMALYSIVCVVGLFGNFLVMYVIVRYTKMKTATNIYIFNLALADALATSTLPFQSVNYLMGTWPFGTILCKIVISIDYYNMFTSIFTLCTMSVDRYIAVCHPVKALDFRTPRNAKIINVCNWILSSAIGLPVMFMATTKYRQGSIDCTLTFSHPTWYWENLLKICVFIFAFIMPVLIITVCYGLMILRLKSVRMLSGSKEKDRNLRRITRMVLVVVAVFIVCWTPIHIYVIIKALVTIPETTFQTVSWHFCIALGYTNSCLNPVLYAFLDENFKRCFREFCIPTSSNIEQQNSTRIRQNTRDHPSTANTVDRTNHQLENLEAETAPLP
T2 sequence (Q9Y5X5 whole entry): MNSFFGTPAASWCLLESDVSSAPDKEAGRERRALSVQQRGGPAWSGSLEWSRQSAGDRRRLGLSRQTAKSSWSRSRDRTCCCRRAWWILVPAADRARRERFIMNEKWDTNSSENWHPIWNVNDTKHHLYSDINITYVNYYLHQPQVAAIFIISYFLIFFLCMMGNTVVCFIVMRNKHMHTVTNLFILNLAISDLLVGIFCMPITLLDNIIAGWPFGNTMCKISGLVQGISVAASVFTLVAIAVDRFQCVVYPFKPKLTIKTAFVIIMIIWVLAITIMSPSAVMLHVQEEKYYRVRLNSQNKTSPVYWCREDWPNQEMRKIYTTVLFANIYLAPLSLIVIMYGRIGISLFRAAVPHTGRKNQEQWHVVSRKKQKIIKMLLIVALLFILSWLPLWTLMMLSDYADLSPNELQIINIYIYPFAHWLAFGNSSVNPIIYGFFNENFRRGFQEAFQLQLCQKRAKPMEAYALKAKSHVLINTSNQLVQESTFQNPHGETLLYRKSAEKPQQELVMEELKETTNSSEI
T4 sequence (P41145 whole entry): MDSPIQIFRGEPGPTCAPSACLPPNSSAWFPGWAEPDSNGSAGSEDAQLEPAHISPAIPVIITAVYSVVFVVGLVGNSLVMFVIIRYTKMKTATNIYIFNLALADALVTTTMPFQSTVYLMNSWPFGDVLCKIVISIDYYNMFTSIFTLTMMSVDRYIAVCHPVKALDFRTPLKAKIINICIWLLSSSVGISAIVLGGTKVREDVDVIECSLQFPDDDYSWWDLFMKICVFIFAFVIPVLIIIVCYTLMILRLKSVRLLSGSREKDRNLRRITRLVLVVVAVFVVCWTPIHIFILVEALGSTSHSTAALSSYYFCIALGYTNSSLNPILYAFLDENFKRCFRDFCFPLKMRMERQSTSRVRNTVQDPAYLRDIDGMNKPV

Turning to “1DMe: high-affinity peptidic NPFF receptor ligand (YLFQPQRF)”, the EC50 is 71 ± 14 nM in the series with hNPFF1-R [1] and 2.7 ± 0.5 nM in the series with hNPFF2-R [2].

`N=C(N)Nc1ccc(C(=C2CCN(Cc3ccccc3)CC2)c2ccccc2)cc1` [Compound 22b, 1-(4-((1-Benzylpiperidin-4-ylidene)(phenyl)methyl)phenyl)guanidine]: the Ki on MOR [3] is 428 ± 33 nM; at hNPFF1-R [6], 929 ± 183 nM; on KOR [7], 270 ± 43 nM; at hNPFF2-R [9], 272 ± 1 nM; on DOR [12], 11.4 ± 4.3 nM. For the same compound, the EC50 at MOR [4] was determined as 576 ± 311 nM; at KOR [5] it was 2710 ± 398 nM; at DOR [11], 539 ± 93.2 nM. The entries for the “number of excreted fecal boli” value in the series on C57BL/6J mice [8] (30 nmol i.c.v.) and in the series on C57BL/6J mice [8] (100 nmol i.c.v.) were 3.5 ± 0.7 boli and 4.1 ± 0.6 boli, respectively. In addition, the “compound remained unchanged after 1 h of incubation” value in series [10] (1 µM, RLM, with NADPH) is 25.5%. In addition, the “stability in negative control reaction mixture” value in series [10] (RLM without NADPH) is on record as “metabolism of the compound was also observed”. Further, the half-life at 1 µM in series [10] (Sprague Dawley, rat, liver microsomes, pH 7.4, 1 µM, RLM, read-out: in vitro half-life) is 0.517 ± 0.0133 h. In series [10] (pooled rat liver microsomes), the “intrinsic clearance (CLint)” value was 0.045 ± 0.001 mL/min per milligram of microsomal protein. Further, the “effect on ambulation (spontaneous locomotor activity)” value in the series with C57BL/6J mice [13] was “not significantly greater than that of the vehicle”. Also, the “antinociceptive activity over time (screening)” value in the series on C57BL/6J mice [14] (30 nmol i.c.v., 55 °C) is given as “induced the greatest tail withdrawal latencies”. Also, the “antinociceptive response after pretreatment with DOR-selective antagonist naltrindole” value with C57BL/6J mice [14] (22b 30 nmol i.c.v., naltrindole 20 mg/kg i.p. 20 min before, 40 min) is “did not alter the antinociceptive response”. For the same compound, the “antinociceptive response after pretreatment with KOR-selective antagonist nor-BNI” value in the series with C57BL/6J mice [14] (22b 30 nmol i.c.v., nor-BNI 10 mg/kg i.p. 24 h before, 40 min) is “did not alter the antinociceptive response”. The “antinociceptive activity after pretreatment with MOR-selective antagonist β-FNA” value with C57BL/6J mice [14] (22b 30 nmol i.c.v., β-FNA 5 mg/kg s.c. 24 h before, 40 min) is recorded as “almost completely abolished”. The 50% effective dose (ED50) in the series on C57BL/6J mice [14] (Mus musculus, ip, 10 min, i.p., 10 min after administration, 55 °C, read-out: antinociception ED50 (95% confidence interval)) amounted to 3.61 mg/kg. Besides, the “antinociception ED50 (95% confidence interval)” value in the series with C57BL/6J mice [14] (i.c.v., 40 min after administration, 55 °C) was 6.88 (4.71–9.47) nmol. Besides, the “duration of antinociceptive effect” value in the series on C57BL/6J mice [14] (i.p. administration) is “no more than 50 min”. Moreover, the “effect on respiration rate” value in the series with C57BL/6J mice [15] (30 nmol i.c.v.) was “no marked reduction in respiration”; in the series on C57BL/6J mice [15] (100 nmol i.c.v.) it was “increased respiration rate”. In addition, the “antinociception ED50 (95% CI), second administration” value in the series with C57BL/6J mice [16] (given 8 h after a first dose (morphine 3 nmol, 22b 8.7 nmol), 55 °C) was 10.8 (5.89–21.1) nmol. Besides, the “rightward shift of antinociceptive dose response (acute tolerance)” value in the series on C57BL/6J mice [16] (second administration 8 h after first) turned out to be 1.6 fold. Also, the “prevention of NPFF-induced hyperalgesia (screening)” value with C57BL/6J mice [17] (30 nmol i.c.v. two hours before NPFF 30 nmol i.c.v.) was “more moderate, yet still statistically significant, effect”. Besides, the “prevention of NPFF-induced hyperalgesia after peripheral pretreatment” value in the series with C57BL/6J mice [17] (10 mg/kg i.p. pretreatment, NPFF 30 nmol i.c.v.) is “significant antagonism”. For the same compound, the AUC/dose0_inf in series [18] is 3004.7 ± 108.1 ng·h/mL/mg. Moreover, in series [18] (setting [19]), the C0 stood at 9150 ± 3740 ng/mL. The compound further showed a Vd in series [18] (setting [19]) of 2 ± 0.2 L. Further, the clearance in series [18] (setting [19]) is 5 mL/min. For the same compound, the half-life in [18] (setting [19]) is 4.1 ± 0.5 h. In series [18] (male, Sprague Dawley, plasma, iv, read-out: k (elimination rate constant) (converted)), the k el is 5.56e-05 s⁻¹.

In the case of `N=C(N)NCCNC(=O)C1(Nc2ccccc2)CCN(Cc2ccccc2)CC1` [compound 2], the Ki at NPFF1-R was 81 ± 17 nM.

One may read the EC50 as the concentration at which the effect is half-maximal. As usually defined, the Ki is the dissociation constant of the complex between target and ligand, obtained from inhibition or displacement. As a reminder, the half-life is the time in which the quantity being followed falls by half. Broadly, the ED50 is the midpoint of the dose-response relation. In general, Vd refers to the apparent volume that relates the amount in the body to the concentration in plasma or blood. Low values mean little distribution into tissue, high ones wide distribution into tissue. For orientation: clearance means the rate of elimination divided by the concentration. A lower clearance goes with inefficient removal.

Values taken from article PMC12251305 (Molecules, 2025).
